Results: patent publication US11180484B2, “Pyrazole derivatives as plasma kallikrein inhibitors” (KALVISTA PHARMACEUTICALS LIMITED, priority 2016, dated 2021)

Assays:
Human plasma kallikrein [1] = molecular target: T1, Human plasma kallikrein (Homo sapiens (Human), UniProt P03952); assay: Determination of the IC50 for plasma kallikrein; format: biochemical; details: 25° C., substrate H-DPro-Phe-Arg-AFC; read-out: IC50 (human PKal)
Procedure: Human plasma kallikrein (Protogen) was incubated at 25° C. with the fluorogenic substrate H-DPro-Phe-Arg-AFC and various concentrations of the test compound. Residual enzyme activity (initial rate of reaction) was determined by measuring the change in […] at 410 nm and the IC50 value for the test compound was determined.

Human KLK1 = Human KLK1 (Homo sapiens (Human), UniProt P06870); assay: Determination of the IC50 for KLK1; format: biochemical; details: 25° C., substrate H-DVal-Leu-Arg-AFC
Procedure: Human KLK1 (Callbiochem) was incubated at 25° C. with the fluorogenic substrate H-DVal-Leu-Arg-AFC and various concentrations of the test compound. Residual enzyme activity (initial rate of reaction) was determined by measuring the change in […] at 410 nm and the IC50 value for the test compound was determined.

Human FXIa = Human FXIa (Homo sapiens (Human), UniProt P03951); assay: Determination of the % inhibition / IC50 for FXIa; format: biochemical; details: for IC50: 25° C., substrate Z-Gly-Pro-Arg-AFC
Procedure: FXIa inhibitory activity in vitro was determined using standard published methods (see e.g. Johansen et al., Int. J. Tiss. Reac. 1986, 8, 185; Shori et al., Biochem. Pharmacol., 1992, 43, 1209; Sturzebecher et al., Biol. Chem. Hoppe-Seyler, 1992, 373, 1025). […]

Human Factor XIIa = Human Factor XIIa (Homo sapiens (Human), UniProt P00748); assay: Factor XIIa inhibitory activity in vitro; format: biochemical; details: 25° C., substrate H-DPro-Phe-Arg-AFC; read-out: IC50 (human FXIIa)
Procedure: Human Factor XIIa (Enzyme Research Laboratories) was incubated at 25° C. with the fluorogenic substrate H-DPro-Phe-Arg-AFC and various concentrations of the test compound. Residual enzyme activity (initial rate of reaction) was determined by measuring the change in […] at 410 nm and the IC50 value for the test compound was determined.

[2] = In vitro permeability, Caco-2 model for oral absorption; format: in vitro ADME; details: human, apical to basolateral, 50 μM test compound, 37° C.
Procedure: In vitro permeability was determined using the Caco-2 model for oral absorption. The methodology was adapted from standard published methods (Wang Z, Hop C. E., Leung K. H. and Pang J. (2000) J Mass Spectrom 35(1); 71-76). The Caco-2 monolayers were established in a Biocoat™ HTS fibrillar collagen 24 well multiwell insert system (1.0 μm, PET membrane, Corning 354803) in which 200,000 cells were seeded into each insert and maintained over 3 days before being utilised in the permeability assay. For the assay, 50 μM test compound is added to the apical side of the inserts and incubated for 1 hour at 37° C. on a shaking platform (120 rpm). Apical to basolateral transport was determined by measuring the test article in both compartments by LCMS following the 1 hour incubation. The integrity of the Caco-2 monolayers was confirmed by two methods, (i) comparison of pre- and post-experiment transepithelial electrical resistance (TEER) and, (ii) assessment of Lucifer Yellow flux.

[3] = Intrinsic clearance in human liver microsomes; format: in vitro ADME; details: human liver microsomes 0.5 mg/mL, 5 μM test compound, 37° C.; read-out: Human liver microsome (Clint μL/min/mg protein)
Procedure: (§1) Rat or human liver microsomes (0.5 mg/mL; Corning) were incubated with 5 μM test compound at 37° C. on a shaking platform (150 rpm). Samples were taken at 0, 6, 12, 18, 24 and 60 min and test compound concentrations were determined by LCMS against a calibration curve.

[4] = Intrinsic clearance in rat liver microsomes; format: in vitro ADME; details: rat liver microsomes 0.5 mg/mL, 5 μM test compound, 37° C.; read-out: rat liver microsome (Clint μL/min/mg protein)
Procedure: as §1

[5] = Plasma protein binding (PPB), rapid equilibrium dialysis, human plasma; format: in vitro ADME; details: 5 μM test compound, dialysis 5 hrs at 37° C.
Procedure: The fraction unbound in plasma was determined using ThermoScientific™ Pierce™ Rapid Equilibrium Dialysis Technology (Single-Use plate with inserts, 8K MWCO). […] Reference samples from the non-dialysed plasma were taken before the incubation to enable an assessment of recovery. Test compound concentrations were determined in plasma and buffer compartments by LCMS against a calibration curve. […] Results are presented as percent plasma protein bound (% PPB).

[6] = Plasma protein binding (PPB), rapid equilibrium dialysis, rat plasma; format: in vitro ADME; details: 5 μM test compound, dialysis 5 hrs at 37° C.
Procedure: The fraction unbound in plasma was determined using ThermoScientific™ Pierce™ Rapid Equilibrium Dialysis Technology (Single-Use plate with inserts, 8K MWCO). 5 μM test compound was spiked into human or rat plasma (300 μL) and dialysed against 146.5 mM phosphate buffer (500 μL) for 5 hrs at 37° C., shaking at 1200 rpm. Reference samples from the non-dialysed plasma were taken before the incubation to enable an assessment of recovery. Test compound concentrations were determined in plasma and buffer compartments by LCMS against a calibration curve. The fraction unbound in plasma was determined using standard methodology (Waters N J et al (2008) J Pharm Sci 97(10); 4586-95). Results are presented as percent plasma protein bound (% PPB).

[7] = Predicted plasma clearance (Clp), well-stirred model, human; format: in vitro ADME; details: percentage of hepatic blood flow
Procedure: (§2) The predicted plasma clearance (Clp) is calculated using the well-stirred model (Rowland M, Benet L Z, and Graham G G. Clearance concepts in pharmacokinetics. J Pharmacokinet Biopharm. (1973) 1:123-136.), one of several models that can be used to extrapolate the in vitro data. The model assumes instantaneous and complete mixing of drug within the liver and is a function of intrinsic clearance, hepatic blood flow and free fraction of drug in the blood. The predicted plasma clearance in mL/min/kg is presented as a percentage of hepatic blood flow (LBF).

[8] = Predicted plasma clearance (Clp), well-stirred model, rat; format: in vitro ADME; details: percentage of hepatic blood flow
Procedure: as §2

Human plasma kallikrein [9] = molecular target: T1, Human plasma kallikrein; assay: Determination of the Ki for plasma kallikrein (mixed-model inhibition); format: biochemical; details: for Ki: human plasma kallikrein, mixed-model inhibition equation; for Alpha: parameter of the mixed-model equation indicating mechanism of inhibition
Procedure: Plasma kallikrein inhibitory activity in vitro was determined using standard published methods (e.g. Johansen et al., Int. J. Tiss. Reac. 1986, 8, 185; Shori et al., Biochem. Pharmacol., 1992, 43, 1209; Sturzebecher et al., Biol. Chem. Hoppe-Seyler, 1992, 373, 1025). […]. Residual enzyme activity (initial rate of reaction) was determined by measuring the change in fluorescence at 410 nm. The Ki value for the test compound was determined using the mixed-model inhibition equation (based on Equation 3.2 in: RA Copeland, Evaluation of Enzyme Inhibitors in Drug Discovery, Wiley 2005) in GraphPad Prism. The mixed model equation includes competitive, uncompetitive and noncompetitive inhibition as special cases and the parameter of Alpha to indicate mechanism of inhibition.

Human FXIa, sequence (P03951 388-625): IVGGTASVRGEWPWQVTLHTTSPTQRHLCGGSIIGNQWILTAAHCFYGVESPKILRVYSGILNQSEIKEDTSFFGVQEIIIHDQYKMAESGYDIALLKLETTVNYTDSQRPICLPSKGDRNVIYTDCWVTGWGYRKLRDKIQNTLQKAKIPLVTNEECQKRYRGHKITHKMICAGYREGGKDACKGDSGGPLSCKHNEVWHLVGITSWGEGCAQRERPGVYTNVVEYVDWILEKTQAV
Human FXIa, sequence (P03951 19-387): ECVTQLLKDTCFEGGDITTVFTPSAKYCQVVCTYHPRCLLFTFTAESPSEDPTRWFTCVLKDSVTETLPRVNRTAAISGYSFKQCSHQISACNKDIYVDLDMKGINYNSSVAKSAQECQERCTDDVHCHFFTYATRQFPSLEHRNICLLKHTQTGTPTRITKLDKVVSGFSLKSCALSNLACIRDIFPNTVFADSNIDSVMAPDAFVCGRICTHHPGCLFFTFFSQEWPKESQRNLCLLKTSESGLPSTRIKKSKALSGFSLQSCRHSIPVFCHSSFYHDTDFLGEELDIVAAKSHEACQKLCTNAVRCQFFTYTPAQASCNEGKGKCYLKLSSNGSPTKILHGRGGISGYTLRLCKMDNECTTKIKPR
Human KLK1, sequence (P06870 25-262): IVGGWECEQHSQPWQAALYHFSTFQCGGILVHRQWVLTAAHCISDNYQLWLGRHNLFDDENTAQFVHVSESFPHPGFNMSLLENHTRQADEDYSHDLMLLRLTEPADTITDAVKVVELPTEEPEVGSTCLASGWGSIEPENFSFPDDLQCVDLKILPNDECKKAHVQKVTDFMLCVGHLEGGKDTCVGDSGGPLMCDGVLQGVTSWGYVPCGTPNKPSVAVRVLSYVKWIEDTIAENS
Human Factor XIIa, sequence (P00748 373-615): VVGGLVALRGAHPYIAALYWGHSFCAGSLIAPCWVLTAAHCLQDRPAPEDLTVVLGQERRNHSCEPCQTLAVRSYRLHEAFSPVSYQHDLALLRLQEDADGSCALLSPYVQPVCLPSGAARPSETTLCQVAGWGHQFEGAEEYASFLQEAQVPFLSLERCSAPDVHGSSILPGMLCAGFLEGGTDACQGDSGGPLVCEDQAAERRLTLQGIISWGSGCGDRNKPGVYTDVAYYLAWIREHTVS
T1 sequence (P03952 391-638): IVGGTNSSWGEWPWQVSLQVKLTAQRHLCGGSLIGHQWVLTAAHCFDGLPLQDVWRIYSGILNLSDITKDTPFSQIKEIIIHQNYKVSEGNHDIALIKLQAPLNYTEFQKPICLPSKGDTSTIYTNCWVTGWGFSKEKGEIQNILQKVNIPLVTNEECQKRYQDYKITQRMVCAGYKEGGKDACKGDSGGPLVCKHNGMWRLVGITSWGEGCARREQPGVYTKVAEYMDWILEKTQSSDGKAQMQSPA
T1 sequence (P03952 20-390): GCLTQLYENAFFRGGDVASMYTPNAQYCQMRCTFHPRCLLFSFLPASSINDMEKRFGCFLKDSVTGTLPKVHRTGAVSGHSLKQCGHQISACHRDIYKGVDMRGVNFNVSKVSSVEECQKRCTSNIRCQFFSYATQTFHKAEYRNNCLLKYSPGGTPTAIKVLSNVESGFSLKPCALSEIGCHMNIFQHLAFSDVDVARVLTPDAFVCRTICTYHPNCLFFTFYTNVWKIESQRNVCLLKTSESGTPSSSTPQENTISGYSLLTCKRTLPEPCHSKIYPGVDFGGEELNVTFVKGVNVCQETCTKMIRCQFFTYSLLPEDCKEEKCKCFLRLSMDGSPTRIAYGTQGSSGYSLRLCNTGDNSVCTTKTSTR

Row | Structure (SMILES) | IC50 (Human plasma kallikrein [1]) [µM] | IC50 (Human KLK1) [µM] | IC50 (Human FXIa) [µM] | IC50 (Human Factor XIIa) [µM] | Papp at 1 h, 50 μM [2] [nm/s] | microsomal CLint at 5 μM [3] [µL/min/mg] | microsomal CLint at 5 μM [4] [µL/min/mg] | fraction unbound at 5 h, 5 μM [5] | fraction unbound at 5 h, 5 μM [6] | Predicted in vivo human Clp (% LBF) [7] [% LBF] | Predicted in vivo rat Clp (% LBF) [8] [% LBF] | Ki (Human plasma kallikrein [9]) [µM] | Alpha (Human plasma kallikrein [9]) | inhibition at 40 µM (Human FXIa; 40 μM test compound, read-out: % Inhibition @ 40 μM (human FXIa)) [%]
1 | COc1ccnc(CNC(=O)c2cn(Cc3ccc(Cn4ccccc4=O)cc3)nc2N)c1F [Example 5, 3-amino-N-[(3-fluoro-4-methoxypyridin-2-yl)methyl]-1-({4-[(2-oxopyridin-1-yl)methyl]phenyl}methyl)pyrazole-4-carboxamide] | 0.002 | > 40 | > 40 | > 40 | 20 | 3 | 6 | 0.23 | 0.36 | 3 | 5 | – | – | –
2 | COCc1nn(Cc2ccc(Cn3cc(C)cn3)cc2)cc1C(=O)NCc1c(-n2cnnn2)ccc(OC)c1F [Example 60, N-{[2-fluoro-3-methoxy-6-(1,2,3,4-tetrazol-1-yl)phenyl]methyl}-3-(methoxymethyl)-1-({4-[(4-methylpyrazol-1-yl)methyl]phenyl}methyl)pyrazole-4-carboxamide] | 0.0009 | > 40 | 4.7 | > 40 | 250 | 90 | 114 | 0.09 | 0.03 | 35 | 12 | 0.0003 | 1.6 | 90
3 | COCc1nn(Cc2ccc(Cn3cc(C)cn3)cc2)cc1C(=O)NCc1cc(OC)ccc1-n1cnnn1 [Example 61, N-{[5-methoxy-2-(1,2,3,4-tetrazol-1-yl)phenyl]methyl}-3-(methoxymethyl)-1-({4-[(4-methylpyrazol-1-yl)methyl]phenyl}methyl)pyrazole-4-carboxamide] | 0.0017 | > 4 | > 40 | > 4 | 220 | 55 | 132 | 0.08 | 0.04 | 4 | 15 | – | – | –
4 | O=C(NCc1c(F)cccc1-n1cnnn1)c1cn(Cc2ccc(Cn3ccccc3=O)cc2)nc1C(F)(F)F [Example 64, N-{[2-fluoro-6-(1,2,3,4-tetrazol-1-yl)phenyl]methyl}-1-({4-[(2-oxopyridin-1-yl)methyl]phenyl}methyl)-3-(trifluoromethyl)pyrazole-4-carboxamide] | 0.0006 | > 4 | > 40 | > 4 | 60 | 35 | 94 | 0.08 | 0.09 | 19 | 33 | – | – | –
5 | COCc1nn(Cc2cnc(N3CCCC3)nc2)cc1C(=O)NCc1cc(OC)ccc1-n1cnnn1 [Example 80, N-{[5-methoxy-2-(1,2,3,4-tetrazol-1-yl)phenyl]methyl}-3-(methoxymethyl)-1-{[2-(pyrrolidin-1-yl)pyrimidin-5-yl]methyl}pyrazole-4-carboxamide] | 0.0106 | > 4 | 0.779 | > 4 | 230 | 14 | 54 | 0.08 | 0.04 | 4 | 6 | 0.0024 | 14.8 | –
6 | COCc1nn(Cc2ccc(Cn3ccccc3=O)cc2)cc1C(=O)NCc1c(F)cccc1-n1cnnn1 [Reference Example H, N-{[2-Fluoro-6-(1,2,3,4-tetrazol-1-yl)phenyl]methyl}-3-(methoxymethyl)-1-({4-[(2-oxopyridin-1-yl)methyl]phenyl}methyl)pyrazole-4-carboxamide, reference compound] | 0.0011 | > 40 | > 40 | > 40 | 120 | 25 | 94 | 0.16 | 0.13 | 14 | 26 | 0.00052 | 108 | –
